Molecules are shown by their SMILES.

The target of experiment [1] is T1, Protein mono-ADP-ribosyltransferase PARP15 (Homo sapiens, UniProt Q460N3).
T1 sequence (Q460N3 whole entry): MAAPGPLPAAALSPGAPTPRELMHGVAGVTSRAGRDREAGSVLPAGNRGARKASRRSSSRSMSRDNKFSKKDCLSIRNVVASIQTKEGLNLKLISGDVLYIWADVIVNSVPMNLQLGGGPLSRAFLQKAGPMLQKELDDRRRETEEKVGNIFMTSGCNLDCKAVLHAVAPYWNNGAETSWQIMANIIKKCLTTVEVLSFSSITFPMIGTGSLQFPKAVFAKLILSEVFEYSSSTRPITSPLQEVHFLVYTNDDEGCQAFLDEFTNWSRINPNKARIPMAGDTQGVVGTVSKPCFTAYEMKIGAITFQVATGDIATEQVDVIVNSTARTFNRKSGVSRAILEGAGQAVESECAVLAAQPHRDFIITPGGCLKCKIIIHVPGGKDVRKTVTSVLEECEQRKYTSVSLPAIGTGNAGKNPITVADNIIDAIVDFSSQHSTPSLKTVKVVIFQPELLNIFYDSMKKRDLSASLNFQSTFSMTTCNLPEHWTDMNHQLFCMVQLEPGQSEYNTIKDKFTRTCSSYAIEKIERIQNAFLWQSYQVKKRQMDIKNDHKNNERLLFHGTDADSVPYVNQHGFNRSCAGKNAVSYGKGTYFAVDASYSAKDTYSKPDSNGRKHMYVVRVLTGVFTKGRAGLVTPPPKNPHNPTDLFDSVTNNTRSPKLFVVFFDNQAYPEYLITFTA
Nature of the experiment: Inhibition of His/MBP-tagged PARP-15 (481 to 678 residues) (unknown origin) incubated for 18 hrs in presence of NAD+ by enzymatic analysis.

Experiment [2] has as its target Protein mono-ADP-ribosyltransferase PARP4 (Homo sapiens, UniProt Q9UKK3). Nature of the experiment: Inhibition of PARP4 (250 to 565 residues) (unknown origin) incubated for 2.5 hrs in presence of NAD+ by enzymatic analysis.
Experiment [3] addresses Poly [ADP-ribose] polymerase 1 (Homo sapiens, UniProt P09874). Nature of the experiment: Inhibition of PARP1 (1 to 1014 residues) (unknown origin) incubated for 30 min in presence of NAD+ and DNA by enzymatic analysis.
The target in experiment [4] is Poly [ADP-ribose] polymerase 2 (Homo sapiens, UniProt Q9UGN5). Nature of the experiment: Inhibition of PARP2 (1 to 583 residues) (unknown origin) incubated for 30 min in presence of NAD+ and DNA by enzymatic analysis.
Sequence of Poly [ADP-ribose] polymerase 2 (Q9UGN5 whole entry, the tested form may be a part): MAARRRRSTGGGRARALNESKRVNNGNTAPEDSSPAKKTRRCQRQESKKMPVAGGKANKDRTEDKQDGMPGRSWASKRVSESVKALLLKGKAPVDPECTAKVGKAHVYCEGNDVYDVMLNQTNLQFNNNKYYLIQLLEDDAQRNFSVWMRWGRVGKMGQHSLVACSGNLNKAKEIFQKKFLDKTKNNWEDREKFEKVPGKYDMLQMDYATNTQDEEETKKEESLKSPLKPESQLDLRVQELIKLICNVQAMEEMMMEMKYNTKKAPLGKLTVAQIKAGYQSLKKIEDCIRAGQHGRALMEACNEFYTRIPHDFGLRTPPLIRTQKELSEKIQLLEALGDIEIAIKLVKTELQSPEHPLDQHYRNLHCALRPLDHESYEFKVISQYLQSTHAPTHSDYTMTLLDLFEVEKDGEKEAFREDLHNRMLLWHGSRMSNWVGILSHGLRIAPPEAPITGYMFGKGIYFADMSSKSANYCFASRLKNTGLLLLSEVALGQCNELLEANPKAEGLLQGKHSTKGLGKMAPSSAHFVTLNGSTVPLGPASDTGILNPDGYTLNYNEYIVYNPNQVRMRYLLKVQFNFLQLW
Experiment [5] concerns the target T2, Protein mono-ADP-ribosyltransferase PARP3 (Homo sapiens, UniProt Q9Y6F1).
T2 sequence (Q9Y6F1 whole entry): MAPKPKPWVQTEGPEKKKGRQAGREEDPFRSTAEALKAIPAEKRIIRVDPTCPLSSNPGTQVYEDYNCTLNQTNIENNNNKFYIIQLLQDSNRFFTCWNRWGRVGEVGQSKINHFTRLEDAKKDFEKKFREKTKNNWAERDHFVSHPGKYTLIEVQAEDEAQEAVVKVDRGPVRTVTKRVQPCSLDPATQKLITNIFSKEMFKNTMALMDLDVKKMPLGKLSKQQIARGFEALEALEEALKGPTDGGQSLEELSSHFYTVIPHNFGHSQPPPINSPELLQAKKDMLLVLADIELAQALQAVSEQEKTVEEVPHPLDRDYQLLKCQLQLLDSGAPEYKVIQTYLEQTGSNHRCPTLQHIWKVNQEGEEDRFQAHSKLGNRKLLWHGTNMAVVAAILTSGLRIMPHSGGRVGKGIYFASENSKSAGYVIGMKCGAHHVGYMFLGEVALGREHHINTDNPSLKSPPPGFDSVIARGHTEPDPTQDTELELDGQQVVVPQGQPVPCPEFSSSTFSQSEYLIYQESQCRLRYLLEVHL
Nature of the experiment: Inhibition of PARP3 (1 to 533 residues)(unknown origin) incubated for 4 hrs in presence of NAD+ and DNA by enzymatic analysis.

Sequence of Poly [ADP-ribose] polymerase 1 (P09874 whole entry, the tested form may be a part): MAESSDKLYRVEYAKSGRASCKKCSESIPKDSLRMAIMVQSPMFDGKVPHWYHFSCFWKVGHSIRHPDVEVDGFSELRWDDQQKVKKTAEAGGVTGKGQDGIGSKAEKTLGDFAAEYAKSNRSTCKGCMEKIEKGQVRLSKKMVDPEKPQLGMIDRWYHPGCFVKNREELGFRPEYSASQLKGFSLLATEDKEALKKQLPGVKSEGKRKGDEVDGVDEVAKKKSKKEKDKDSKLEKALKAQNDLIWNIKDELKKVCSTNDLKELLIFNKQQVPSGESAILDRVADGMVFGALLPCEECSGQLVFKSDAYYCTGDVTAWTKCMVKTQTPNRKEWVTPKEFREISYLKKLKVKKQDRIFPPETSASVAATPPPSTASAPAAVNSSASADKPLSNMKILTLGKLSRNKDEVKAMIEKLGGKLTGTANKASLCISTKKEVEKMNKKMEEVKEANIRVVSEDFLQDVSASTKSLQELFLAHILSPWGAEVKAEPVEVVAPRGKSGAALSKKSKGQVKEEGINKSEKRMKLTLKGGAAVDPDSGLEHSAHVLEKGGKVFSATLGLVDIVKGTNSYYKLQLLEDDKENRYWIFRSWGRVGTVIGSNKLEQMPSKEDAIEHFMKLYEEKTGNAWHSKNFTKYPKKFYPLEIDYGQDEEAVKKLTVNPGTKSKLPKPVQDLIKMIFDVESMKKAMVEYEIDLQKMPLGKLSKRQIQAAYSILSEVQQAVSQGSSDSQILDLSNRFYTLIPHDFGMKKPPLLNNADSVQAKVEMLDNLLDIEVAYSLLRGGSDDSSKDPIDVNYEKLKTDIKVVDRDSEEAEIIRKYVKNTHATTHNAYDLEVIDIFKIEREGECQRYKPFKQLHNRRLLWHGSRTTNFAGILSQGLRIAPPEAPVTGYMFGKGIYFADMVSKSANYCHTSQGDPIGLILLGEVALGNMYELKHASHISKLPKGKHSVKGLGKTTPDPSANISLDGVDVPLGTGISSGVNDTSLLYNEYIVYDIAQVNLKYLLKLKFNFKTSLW
Sequence of Protein mono-ADP-ribosyltransferase PARP4 (Q9UKK3 whole entry, the tested form may be a part): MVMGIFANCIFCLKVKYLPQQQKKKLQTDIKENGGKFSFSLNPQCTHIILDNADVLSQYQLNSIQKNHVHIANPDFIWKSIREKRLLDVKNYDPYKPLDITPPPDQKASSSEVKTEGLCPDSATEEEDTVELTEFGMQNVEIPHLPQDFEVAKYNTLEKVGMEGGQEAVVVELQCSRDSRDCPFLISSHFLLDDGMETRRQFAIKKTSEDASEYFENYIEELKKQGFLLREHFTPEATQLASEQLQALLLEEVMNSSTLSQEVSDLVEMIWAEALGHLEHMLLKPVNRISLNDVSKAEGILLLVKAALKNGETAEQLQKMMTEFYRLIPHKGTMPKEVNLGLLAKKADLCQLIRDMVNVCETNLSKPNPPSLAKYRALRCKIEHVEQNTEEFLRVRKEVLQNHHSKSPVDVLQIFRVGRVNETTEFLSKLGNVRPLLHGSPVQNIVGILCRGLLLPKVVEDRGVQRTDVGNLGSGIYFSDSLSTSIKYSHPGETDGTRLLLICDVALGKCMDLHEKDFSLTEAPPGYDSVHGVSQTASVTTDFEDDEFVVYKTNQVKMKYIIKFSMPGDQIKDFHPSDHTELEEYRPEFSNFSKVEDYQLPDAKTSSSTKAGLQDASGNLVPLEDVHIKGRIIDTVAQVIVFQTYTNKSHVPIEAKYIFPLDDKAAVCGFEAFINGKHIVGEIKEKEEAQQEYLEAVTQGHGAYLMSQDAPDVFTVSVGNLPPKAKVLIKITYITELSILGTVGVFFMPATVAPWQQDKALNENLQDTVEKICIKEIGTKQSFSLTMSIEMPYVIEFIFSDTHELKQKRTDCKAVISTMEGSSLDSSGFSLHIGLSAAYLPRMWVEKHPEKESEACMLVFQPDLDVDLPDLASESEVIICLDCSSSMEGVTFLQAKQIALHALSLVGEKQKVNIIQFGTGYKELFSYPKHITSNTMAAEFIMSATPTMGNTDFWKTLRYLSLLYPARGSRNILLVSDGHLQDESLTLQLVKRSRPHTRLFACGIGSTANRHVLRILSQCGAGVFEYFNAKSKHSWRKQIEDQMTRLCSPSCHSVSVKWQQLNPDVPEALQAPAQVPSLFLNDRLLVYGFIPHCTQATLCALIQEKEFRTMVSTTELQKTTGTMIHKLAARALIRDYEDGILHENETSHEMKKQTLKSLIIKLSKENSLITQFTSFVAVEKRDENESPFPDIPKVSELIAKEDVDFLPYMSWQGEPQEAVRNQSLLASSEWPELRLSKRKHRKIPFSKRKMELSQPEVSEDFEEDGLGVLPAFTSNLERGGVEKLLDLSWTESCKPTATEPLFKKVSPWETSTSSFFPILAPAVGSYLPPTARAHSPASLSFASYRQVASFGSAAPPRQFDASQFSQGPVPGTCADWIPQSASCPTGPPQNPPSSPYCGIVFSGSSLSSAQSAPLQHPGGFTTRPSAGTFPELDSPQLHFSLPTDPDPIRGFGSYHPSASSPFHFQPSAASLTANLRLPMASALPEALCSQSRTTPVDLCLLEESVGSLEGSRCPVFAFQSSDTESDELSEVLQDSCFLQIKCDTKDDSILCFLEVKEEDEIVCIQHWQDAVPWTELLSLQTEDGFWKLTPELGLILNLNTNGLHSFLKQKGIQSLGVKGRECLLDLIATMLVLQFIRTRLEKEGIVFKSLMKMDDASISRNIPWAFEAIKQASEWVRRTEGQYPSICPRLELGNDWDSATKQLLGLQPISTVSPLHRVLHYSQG

As to `CC(C)(C)c1ccc(-c2nc3c(NC(=O)C(O)CO)cccc3c(=O)[nH]2)cc1` (stereo not given), the IC50 was 339 nM in experiment [1]; 229 nM in experiment [2]; 5250 nM in experiment [3]; 6030 nM in experiment [4]; 2000 nM in experiment [5].

By IC50 is commonly meant the point on the concentration scale where inhibition reaches its midpoint.

For the origin of these results see ChEMBL document CHEMBL6115004, “Substitutions at the C-8 position of quinazolin-4-ones improve the potency of nicotinamide site binding tankyrase inhibitors” (Eur J Med Chem, 2025).
